Reference: ChEMBL document CHEMBL1255310, “Simvastatin treatment shows no effect on the incidence of cerebral malaria or parasitemia during experimental malaria” (2008)

Assays:
Type in all cases: functional
[1] = system: Plasmodium berghei; test: Antiplasmodial activity against Plasmodium berghei ANKA infected in C57BL/6 mice (Mus musculus) assessed as parasitemia at 100 ug/g, perorally on days 1,3 and 5
[2] = system: Plasmodium berghei; test: Antiplasmodial activity against Plasmodium berghei ANKA infected in C57BL/6 mice (Mus musculus) assessed as parasitemia at 40 ug/g, intraperitoneally on days 2,4 and 6
[3] = system: Plasmodium berghei; test: Antiplasmodial activity against Plasmodium berghei ANKA infected in C57BL/6 mice (Mus musculus) assessed as parasitemia at 0.5 ug/g, intraperitoneal on day 2, 1 ug/g, intraperitoneal on day 4 followed by 2 ug/g on day 6
[4] = system: Plasmodium berghei; test: Antiplasmodial activity against Plasmodium berghei ANKA infected in C57BL/6 mice (Mus musculus) assessed as parasitemia at 2 ug/g, intraperitoneally on days 2,4 and 6

`CCC(C)(C)C(=O)O[C@H]1C[C@@H](C)C=C2C=C[C@H](C)[C@H](CC[C@@H]3C[C@@H](O)CC(=O)O3)[C@H]21` [SIMVASTATIN] was tested, and the Activity [1] was 2.98%, the Activity [2] was 2.04% and the Activity [3] was 3.04%. It also gave an Activity [4] of 2.38%.
